# Columns and labels:
# [1] = system: MoeGT1 (Streptomyces viridosporus); assay: LC/MS conversion time course; type: biochemical; conditions: donor 1 mM, 40 uM compound 7, 800 nM enzyme, 5 mM MgCl2, pH 7.5, 37 °C
# [2] = system: MoeE5 (Streptomyces viridosporus); assay: anion-exchange HPLC; type: biochemical; conditions: 1 mM UDP-GlcUA, 1 uM enzyme, 20 mM Tris-HCl pH 7.5, 37 °C, 2 h
smiles,measurement,setting,value
O=C(O)[C@H]1O[C@H](OP(=O)(O)OP(=O)(O)OC[C@H]2O[C@@H](n3ccc(=O)[nH]c3=O)[C@H](O)[C@@H]2O)[C@H](O)[C@@H](O)[C@H]1O [UDP-GalUA],LC/MS conversion time course,[1],showed a clear preference for UDP-GalUA over UDP-GlcUA
same,anion-exchange HPLC,[2],we conclude that MoeE5 epimerizes UDP-GlcUA to UDP-GalUA

# From publication PMC2747051 (Biochemistry, 2009)
